The subject of one data set is HIV-1RF. Put plainly: Anti-HIV cytoprotection evaluation in CEM-SS cells (CPE inhibition, XTT). Format: cell-based. To be noted: Human immunodeficiency virus 1, 144 h, 6 days. Here is the method: (§1) (a) Anti-HIV Cytoprotection Evaluation: Inhibition of virus-induced cytopathic effects (CPE) and cell viability following HIV replication in CEM-SS cells were measured by the use of XTT tetrazolium dye. CEM-SS cells (2.5×10^3 cells per well) were seeded in 96-well U-bottomed tissue culture plates in RPMI medium supplemented with 10% FBS, 2 mM L-glutamine, 100 U/ml penicillin and 100 μg/ml streptomycin. Serially diluted compounds (6 concentrations) and HIV-1RF diluted to a pre-determined titer to yield 85 to 95% cell killing at 6 days post-infection were be added to the plate. AZT was evaluated in parallel as a positive control. Following incubation at 37° C., 5% CO2 for six days, cell viability was measured by XTT staining. The optical density of the cell culture plate will be determined spectrophotometrically at 450 and 650 nm using Softmax Pro 4.6 software. Percent CPE reduction of the virus-infected wells and the percent cell viability of uninfected drug control wells was calculated to define the EC50, TC50 and therapeutic index (TI50) using Microsoft Excel Xlfit4.
as §1, with “Inhibition” for “(a) Anti-HIV Cytoprotection Evaluation: Inhibition”, “by” for “by the use of”, “wells were” for “wells was”

Data set [1] in a line: Cell viability of uninfected drug control wells, CEM-SS cells (XTT). Conditions: human, read-out: TC50. The data set is classed as cell-based. Here is the method:
as §1
as §1, with “Inhibition” for “(a) Anti-HIV Cytoprotection Evaluation: Inhibition”, “by” for “by the use of”, “wells were” for “wells was”

The nature of data set [2]: Cytotoxicity in PBMCs (XTT). Conditions: human, PHA-P stimulated PBMCs pooled from three donors; PBMCs, line of isolate CMU08 (E); read-out: TC50. Format: cell-based. How it is done: (§2) (b) Anti-HIV-1 Cytoprotection Assay in PBMCs: PHA-P stimulated PBMCs from three donors were pooled together and re-suspended in fresh tissue culture medium at 1×10^6 cells/ml and plated in the interior wells of a 96 well round bottom microplate at 50 μL/well. A 100 μL volume of 2× concentrations of compound-containing media were transferred to the round-bottom 96-well plate containing the cells in triplicate. Fifty microliters (50 μL) of HIV-1 at a pre-determined dilution was added. Each plate contained cell control wells and virus control wells in parallel with the experimental wells. After 7 days in culture, efficacy was evaluated by measuring the reverse transcriptase in the culture supernatants and the cells were stained with the tetrazolium dye XTT to evaluate cytotoxicity.
as §2, with “This Example illustrates anti-HIV cytoprotection provided by compounds” for “(b) Anti-HIV-1 Cytoprotection Assay”, “accordance with another aspect of the invention, namely in PBMCs.” for “PBMCs:”

The next data set relates to PBMCs. The data set is described as follows: Cytotoxicity in PBMCs (XTT). To be noted: PBMCs, read-out: TC50 (the source's name). The data set is classed as cell-based. Here is the method:
as §2
as §2, with “This Example illustrates anti-HIV cytoprotection provided by compounds” for “(b) Anti-HIV-1 Cytoprotection Assay”, “accordance with another aspect of the invention, namely in PBMCs.” for “PBMCs:”

The subject of another data set is HIV-1 RW92009 (A). Put plainly: Anti-HIV-1 cytoprotection assay in PBMCs, isolate RW92009 (A). Format: cell-based. To be noted: Human immunodeficiency virus 1, PBMC, CXCR4/CCR5. Here is the method: as §2, with “This Example illustrates anti-HIV cytoprotection provided by compounds” for “(b) Anti-HIV-1 Cytoprotection Assay”, “accordance with another aspect of the invention, namely in PBMCs.” for “PBMCs:”

A further data set deals with HIV-1 HT92599 (B). Put plainly: Anti-HIV-1 cytoprotection assay in PBMCs, isolate HT92599 (B). Format: cell-based. To be noted: Human immunodeficiency virus 1, PBMC, CXCR4. How it is done:
as §2, with “This Example illustrates anti-HIV cytoprotection provided by compounds” for “(b) Anti-HIV-1 Cytoprotection Assay”, “accordance with another aspect of the invention, namely in PBMCs.” for “PBMCs:”

The subject of the next data set is HIV-1 ZA97009 (C). The data set is described as follows: Anti-HIV-1 cytoprotection assay in PBMCs, isolate ZA97009 (C). To be noted: Human immunodeficiency virus 1, CCR5. The data set is classed as cell-based. Here is the method:
as §2, with “This Example illustrates anti-HIV cytoprotection provided by compounds” for “(b) Anti-HIV-1 Cytoprotection Assay”, “accordance with another aspect of the invention, namely in PBMCs.” for “PBMCs:”

In the next data set the test system is HIV-1 UG92001 (D). The data set is described as follows: Anti-HIV-1 cytoprotection assay in PBMCs, isolate UG92001 (D). The data set is classed as cell-based. Conditions: Human immunodeficiency virus 1, PBMC, CXCR4/CCR5. Here is the method:
as §2, with “This Example illustrates anti-HIV cytoprotection provided by compounds” for “(b) Anti-HIV-1 Cytoprotection Assay”, “accordance with another aspect of the invention, namely in PBMCs.” for “PBMCs:”

The test system of the next data set is HIV-1 CMU08 (E). Put plainly: Anti-HIV-1 cytoprotection assay in PBMCs, isolate CMU08 (E). Conditions: Human immunodeficiency virus 1, PBMC, CXCR4. Format: cell-based. Here is the method: as §2, with “This Example illustrates anti-HIV cytoprotection provided by compounds” for “(b) Anti-HIV-1 Cytoprotection Assay”, “accordance with another aspect of the invention, namely in PBMCs.” for “PBMCs:”

The subject of the next data set is HIV-1 BR93020 (F). Put plainly: Anti-HIV-1 cytoprotection assay in PBMCs, isolate BR93020 (F). The data set is classed as cell-based. To be noted: Human immunodeficiency virus 1, CCR5. How it is done:
as §2, with “This Example illustrates anti-HIV cytoprotection provided by compounds” for “(b) Anti-HIV-1 Cytoprotection Assay”, “accordance with another aspect of the invention, namely in PBMCs.” for “PBMCs:”

The subject of another data set is HIV-1 RU132 (G). The data set is described as follows: Anti-HIV-1 cytoprotection assay in PBMCs, isolate RU132 (G). Format: cell-based. To be noted: Human immunodeficiency virus 1, CCR5. Here is the method:
as §2, with “This Example illustrates anti-HIV cytoprotection provided by compounds” for “(b) Anti-HIV-1 Cytoprotection Assay”, “accordance with another aspect of the invention, namely in PBMCs.” for “PBMCs:”

For a further data set, the system named is HIV-1 BCF01 (O). Put plainly: Anti-HIV-1 cytoprotection assay in PBMCs, isolate BCF01 (O). The data set is classed as cell-based. To be noted: Human immunodeficiency virus 1, CCR5. How it is done: as §2, with “This Example illustrates anti-HIV cytoprotection provided by compounds” for “(b) Anti-HIV-1 Cytoprotection Assay”, “accordance with another aspect of the invention, namely in PBMCs.” for “PBMCs:”

Data set [3] is described as follows: Pharmacokinetic study in male CD-1 mice. Format: in vivo. To be noted: single IV bolus 5 mg/kg of compound 17, male CD-1 mice. Here is the method:
Male CD-1 mice weighing between […] were dosed via orbital sinus injection and blood was collected via submandibular vein. IV dosing solutions were prepared in DMSO:PEG400:Saline (5:35:60, v/v/v) at 1 mg/mL concentration of the prodrug. Blood samples (50 μL each time point) were obtained via Culex at predetermined time points (0, 5, 15, 30, 60, 120, 240, 360, 480 and 1440 min) after dosing. Plasma was obtained by centrifugation within 30 minutes after collection and aliquots of dosing solutions were taken and analyzed at the same time with plasma samples using a validated LC-MS/MS method developed on a Shimadzu HPLC system interfaced to a Sciex QTRAP 5500 mass spectrometer. Eluents were gradient mixtures of water and acetonitrile with 0.10% formic acid. HPLC column was ACE 5 C8, 50×2.1 mm, […]. PK parameters of the analytes were obtained using Phoenix®, WinNonlin® software (version 8.1).
The study was performed in male CD-1 mice to assess pharmacokinetics (PK) of prodrug 17 and its metabolites 18 and 19.

Like-named read-outs stand apart in the source and are kept apart here.

For `CCCC(=O)OCSc1ccccc1C(=O)NCCn1cc(C(=O)NCc2cccc(C)n2)c(=O)c2cc3c(cc21)OC(F)(F)O3` [Compound 17, ((2-((2-(2,2-difluoro-7-(((6-methylpyridin-2-yl)methyl)carbamoyl)-8-oxo-[1,3]dioxolo[4,5-g]quinolin-5(8H)-yl)ethyl)carbamoyl)phenyl)thio)methyl butyrate], the EC50 was 1.48 µM in the data set with HIV-1RF; 4.26 µM in the data set with HIV-1 RW92009 (A); 6.52 µM in the data set with HIV-1 HT92599 (B); 10.7 µM in the data set on HIV-1 ZA97009 (C); 5.14 µM in the data set on HIV-1 UG92001 (D); 5.23 µM in the data set on HIV-1 CMU08 (E). Besides, the EC50 is 2.01 µM with HIV-1 BR93020 (F), 6.85 µM in the data set on HIV-1 RU132 (G) and 7.79 µM with HIV-1 BCF01 (O). Also, the CC50 at 6 days in data set [1] is over 100 µM. The CC50 at 7 days in data set [2] is over 100 µM. For the same compound, the CC50 with PBMCs (line of isolate BCF01 (O)), with PBMCs (line of isolate BR93020 (F)), with PBMCs (line of isolate HT92599 (B)), in the data set with PBMCs (line of isolate RU132 (G)), with PBMCs (line of isolate RW92009 (A)) and in the data set on PBMCs (line of isolate UG92001 (D)) was over 100 µM in each case. The CC50 in the data set with PBMCs (line of isolate ZA97009 (C)) is over 100 µM. In data set [3] (mouse, in vivo), this compound yielded a clearance of 136 mL/min/kg. In [3] (mouse, in vivo, plasma), this compound showed a C0 of 1910 ng/mL. Also, the Vd in [3] (mouse, in vivo, read-out: Vss) was found to be 9.6 L/kg. The tlast in data set [3] (plasma, 18 and 19 measured as metabolites) is recorded as 8.00 h.
